{"source": "patent US6699494B2", "about": "“Pharmaceutical composition and method for treating premature labor” (Columbia Laboratories, Inc., priority 1997, dated 2004)", "key": {"[1]": {"assay": "Single dose pharmacokinetic study of transvaginal terbutaline gel, serum terbutaline by GC-MS", "assay_type": "in vivo, human", "description": "The objective of this study was to assess the pharmacokinetic parameters of the terbutaline and polycarbophil composition following a single dose regimen comparing progressively increasing concentrations. This open-label study was conducted in ten healthy female volunteers with a mean age of 25±SD (Standard Deviation) of 3.93 years. This study consisted of a 30 day screening period and a 24 hour treatment period with a follow-up evaluation conducted two days after administration of the final dose. The drug was administered transvaginally at 9:00 a.m. A wash out period of at least one week as observed between each of the four doses of the drug. All subjects were given an estro-progestative pill, to ensure that all study participants were at the same point in their menstrual cycle. They began dosing on day 7 to 10 of their pill intake for the single dose study. Serum terbutaline concentrations were obtained from blood samples collected predosing on the mornings of treatment, at frequent intervals during the initial 24 hours post dose (0.5, 1, 1.5, 2, 4, 6, 8, 12, 24 hours) and at 48 hours post dose. Serum terbutaline concentrations were determined using gas chromatography-mass spectrometry. Pharmacokinetic parameters were computed using concentration-time data for each subject following intake of the last dose of investigational drug on the morning of study day 6. The following pharmacokinetic parameters were computed: area under the drug concentration-time curve from time 0 to time t (AUC0-t), where t is the time of the last measurable concentration; peak drug concentration (Cmax); time to peak drug concentration (tmax); steady state drug concentration (CSS); and, elimination half-life (t½).\nAll ten subjects completed the study for the 0.1%, 0.2%, and 0.4% (w/w) concentrations. For each dose, the onset of serum terbutaline concentrations occurred within 1 to 2 hours. (See FIG. 1 and Table 2 showing terbutaline concentrations for each tested dose). […] Concentrations were still detectable for up to 48 hours (mean±SEM (Standard Error of the Mean) of 113.11±32.25 pg/mL for the 0.4% concentration).\n(§1) Both the single and multiple dose studies discussed in the preceding examples also evaluated the 0.8% w/w concentration. The average age±SD for the single and multiple dose studies at the 0.8 dose were 26±3.42 and 26±4.12, respectively. The pharmacokinetic parameters from the study follow in Tables 4 and 5."}, "[2]": {"assay": "Human ex vivo uterine perfusion model, vagina to uterus transfer of tritiated terbutaline", "assay_type": "in vitro ADME", "description": "This model verifies the preferential direct delivery of terbutaline from the vagina to the uterus. In this study, uteri obtained from women undergoing hysterectomies for benign diseases were immediately connected to an organ perfusion system in which temperature, CO2 concentration, uterine artery pressure and flow were maintained constant. A perfusion model was opened without recirculation. The direct transfer of terbutaline from the vagina to the uterus was analyzed by applying a mixture of tritiated [^3H] terbutaline and unlabeled terbutaline to the cuff of vaginal tissue remaining attached to the cervix after the hysterectomy. Tritiated terbutaline was only used for autoradiography analysis of sections of uterine tissue. The experiments were interrupted at predetermined time intervals after vaginal applications […]. At the end of the perfusion period, ^3H and ^14C radioactivity was measured in endometrial and myometrial samples. Tritiated water and ^14C dextran helped to determine that the extend of non-specific vagina to uterus transport (due to leaks of the system) was less than 10%. The myometrial extraction of terbutaline and its corresponding venous outflow during the 12 hour uterine perfusions are shown in FIG. 3 below. The ^3H terbutaline started to be recovered in the venous effluent uterine during the first 3 hours. Terbutaline flow was maximal at the 6th-9th hour and then decreased for up to 48 hours of perfusion. Terbutaline flow in the venous effluent uterine is the reflection of terbutaline exiting from the organ. Accumulation of tritiated terbutaline was maximal in the myometrium at 12 hours of perfusion. (Mean±SD of 18.40±3.40 ng/100 mg of tissue) and decreased slowly. Significant accumulation of ^3H terbutaline still remained at 48 hours of perfusion, with 20% of the original concentration present."}, "[3]": {"assay": "Side effects at the 0.8% dose in the single and multiple dose studies", "assay_type": "in vivo, human", "conditions": "transvaginal gel", "source_text": "as §1\nA number of patients in the study (40%), however, experienced side effects such as tachycardia at this dose. […] This dose can be a method of practicing the invention, but is certainly not the most preferred embodiment."}, "[4]": {"conditions": "oral administration, cited from earlier work"}, "[5]": {"conditions": "cited from earlier work"}, "[6]": {"conditions": "terbutaline inhaler, dysmenorrhea; cited from earlier work"}, "[7]": {"conditions": "female, human, 0.1 % (w/w), 0.1% gel, serum, mean ± SEM, n=10"}, "[8]": {"conditions": "female, human, 0.2 % (w/w), 0.2% gel, serum, mean ± SEM, n=10"}, "[9]": {"conditions": "female, human, 0.4 % (w/w), 0.4% gel, serum, mean ± SEM, n=10"}, "[10]": {"conditions": "female, human, 0.8 % w/w, 0.8% gel, serum, mean ± SEM, n=8"}, "[11]": {"conditions": "ex vivo perfused uterus, vaginal application"}}, "note": "Read-outs that look alike come from different tables or passages of the source.", "data": [{"smiles": "CC(C)(C)NCC(O)c1cc(O)cc(O)c1", "note": "(stereo not shown) [Terbutaline, 5-[2-[(1,1-dimethylethyl)amino]-1-hydroxyethyl]-1,3-benzenediol]", "values": [{"measurement": "time for which serum concentrations were still detectable", "setting": "[1]", "result": "up to 48 hours"}, {"measurement": "Css", "setting": "[1]; 0.1% gel, serum, mean ± SEM, n=10", "result": "0.056 ± 0.041", "unit": "ng/mL"}, {"measurement": "Css", "setting": "[1]; 0.2% gel, serum, mean ± SEM, n=10", "result": "0.191 ± 0.108", "unit": "ng/mL"}, {"measurement": "Css", "setting": "[1]; 0.8% gel, serum, mean ± SEM, n=8", "result": "0.579 ± 0.3", "unit": "ng/mL"}, {"measurement": "Cmax", "setting": "[1]; [7]", "result": "0.117 ± 0.059", "unit": "ng/mL"}, {"measurement": "Tmax", "setting": "[1]; [7]", "result": "13 ± 6", "unit": "h"}, {"measurement": "AUC(0-t)", "setting": "[1]; female, human, 0.1 % (w/w), 0.1% gel, serum, mean ± SEM, n=10, read-out: AUC0 to 48", "result": "2.28 ± 1.84", "unit": "ng·h/mL"}, {"measurement": "half-life", "setting": "[1]; female, human, 0.1 % (w/w), 0.1% gel, serum, mean ± SEM, n=10, read-out: t½ (converted)", "result": "18 ± 12", "unit": "h"}, {"measurement": "Cmax", "setting": "[1]; [8]", "result": "0.297 ± 0.17", "unit": "ng/mL"}, {"measurement": "Tmax", "setting": "[1]; [8]", "result": "13 ± 6", "unit": "h"}, {"measurement": "AUC(0-t)", "setting": "[1]; female, human, 0.2 % (w/w), 0.2% gel, serum, mean ± SEM, n=10, read-out: AUC0 to 48", "result": "8.01 ± 4.7", "unit": "ng·h/mL"}, {"measurement": "half-life", "setting": "[1]; female, human, 0.2 % (w/w), 0.2% gel, serum, mean ± SEM, n=10, read-out: t½ (converted)", "result": "29 ± 15", "unit": "h"}, {"measurement": "Cmax", "setting": "[1]; [9]", "result": "0.479 ± 0.149", "unit": "ng/mL"}, {"measurement": "Tmax", "setting": "[1]; [9]", "result": "14 ± 7", "unit": "h"}, {"measurement": "AUC(0-t)", "setting": "[1]; female, human, 0.4 % (w/w), 0.4% gel, serum, mean ± SEM, n=10, read-out: AUC0 to 48", "result": "11.9 ± 5.28", "unit": "ng·h/mL"}, {"measurement": "half-life", "setting": "[1]; female, human, 0.4 % (w/w), 0.4% gel, serum, mean ± SEM, n=10, read-out: t½ (converted)", "result": "24 ± 16", "unit": "h"}, {"measurement": "AUC(0-t)", "setting": "[1]; female, human, 0.8 % w/w gel, 0.8% gel, serum, mean ± SEM, n=8, read-out: AUC0 to 48", "result": "23.2 ± 13.5", "unit": "ng·h/mL"}, {"measurement": "Cmax", "setting": "[1]; [10]", "result": "0.787 ± 0.434", "unit": "ng/mL"}, {"measurement": "Tmax", "setting": "[1]; [10]", "result": "10 ± 3", "unit": "h"}, {"measurement": "half-life", "setting": "[1]; female, human, 0.8 % w/w, 0.8% gel, serum, mean ± SEM, n=8, read-out: t½ (converted)", "result": "20 ± 7", "unit": "h"}, {"measurement": "half-life", "setting": "[1]; female, human, serum, according to the dose administered (0.1%-0.4%), read-out: Mean t½ estimates", "result": "18 to 29", "unit": "h"}, {"measurement": "concentration at 48 h", "setting": "[1]; female, human, serum, other: transvaginal, 0.4 % (w/w), 0.4% concentration, mean±SEM", "result": "0.113 ± 0.0323", "unit": "ng/mL"}, {"measurement": "onset of serum terbutaline concentrations", "setting": "[1]; for each dose (0.1%, 0.2%, 0.4%)", "result": "1 to 2", "unit": "h"}, {"measurement": "time terbutaline lasted in the myometrium", "setting": "[2]; after a single vaginal application", "result": "over 48 hours"}, {"measurement": "accumulation of tritiated terbutaline in the myometrium", "setting": "[2]; at 12 hours of perfusion, Mean±SD", "result": "18.40±3.40 ng/100 mg of tissue"}, {"measurement": "3H terbutaline remaining, share of the original concentration", "setting": "[2]; at 48 hours of perfusion", "result": 20, "unit": "%"}, {"measurement": "time of maximal accumulation of tritiated terbutaline in the myometrium", "setting": "[2]; [11]", "result": 12, "unit": "h"}, {"measurement": "time within which 3H terbutaline started to be recovered in the venous effluent", "setting": "[2]; [11]", "result": "≤ 3", "unit": "h"}, {"measurement": "patients who experienced side effects such as tachycardia", "setting": "[3]", "result": 40, "unit": "%"}, {"measurement": "Bioavailability", "setting": "[4]; extensive first-pass sulphation", "result": "15 and 20%"}, {"measurement": "further decrease of bioavailability by concomitant food intake", "setting": "[4]", "result": 30, "unit": "%"}, {"measurement": "known serum levels for toxicity", "setting": "[5]; prior art", "result": 3000, "unit": "pg/mL"}, {"measurement": "known serum threshold susceptible to trigger systemic adverse events such as tachycardia and tremor", "setting": "[5]; reported in prior art", "result": "3,000-3,500 pg/mL"}, {"measurement": "duration of the effect of each spray", "setting": "[6]", "result": "≥ 1", "unit": "h"}]}]}
